Target: T1, full length active recombinant SYK enzyme (Homo sapiens, UniProt P43405)
T1 construct: full length active recombinant SYK enzyme (Millipore, Calif.); purchased Millipore
Assay: Inhibition of Syk tyrosine phosphorylation activity (LANCE TR-FRET kinase assay)
Type: biochemical
Source text: This example illustrates methods for evaluating the compounds of the invention, along with results obtained for such assays. The in vitro and in vivo human Syk activities of the inventive compounds can be determined by various procedures known in the art, such as a test for their ability to inhibit the activity of human plasma Syk. […] The IC50 value is the concentration (in nM) of the compound required to provide 50% inhibition of human Syk proteolytic activity.
Potency of candidate molecules for inhibiting Syk tyrosine phosphorylation activity is assessed by measuring the ability of a test compound to inhibit Syk-mediated tyrosine phosphorylation of a Syk-specific substrate.
SYK tyrosine phosphorylation activity is measured using the LANCE™ Technology developed by Perkin Elmer Life and Analytical Sciences (Boston, Mass.). LANCE™ refers to homogeneous time resolved fluorometry applications using techniques such as time-resolved fluorescence resonance energy transfer assay (TR-FRET) (see generally for procedures in Perkin Elmer Application Note—How to Optimize a Tyrosine Kinase Assay Using Time Resolved Fluorescence-Based LANCE Detection, wwww.perkinelmer.com/lifesciences). The assay principle involves detection of a phosphorylated substrate using energy transfer from a phosphospecific europium-labeled antibody to streptavidin-allophycocyanin as an acceptor.
To test the ability of candidate molecules to inhibit SYK tyrosine phosphorylation activity, molecules are reconstituted in 30% DMSO and serially diluted 1:3 with the final dilution containing DMSO in the absence of the candidate molecule. The final DMSO concentration in the assay is 3%. Kinase assays are performed as a two part reaction. The first reaction is a kinase reaction and which comprises of a candidate molecule, full length active recombinant SYK enzyme (Millipore, Calif.) and biotin-labeled SYK-specific substrate biotin-[…]-OH. The second reaction involves termination of the kinase reaction and the simultaneous addition of the detection reagents-europium-labeled anti-phosphotyrosine reagent (Eu-W1024-PY100, Perkin Elmer, Boston, Mass.) and Streptavidin-Allophycocyanin detection reagent (SA-APC, Prozyme, Calif.). The kinase reaction is performed in a black U-bottom 96-well microtitre plate. The final reaction volume is 50 μL and contains a final concentration of 1 nM active SYK enzyme, 550 nM SYK-substrate, and 100 μM ATP diluted in a buffer containing 50 mM Tris pH 7.5, 5 mM MgCl2, and 1 mM DTT. The reaction is allowed to proceed for 1 hour at room temperature. The quench buffer contains 100 mM Tris pH 7.5, 300 mM NaCl2, 20 mM EDTA, 0.02% Brij35, and 0.5% BSA. The detection reagents are added to the reaction mixture at the following dilutions-1:500 for Eu-W1024-PY100 and 1:250 for SA-APC. The kinase reaction is terminated by the addition of 50 μL quench buffer containing the detection reagents. The detection is allowed to proceed for 1 hr at room temperature. Detection of the phosphorlated substrate in the absence and presence of inhibitors is measured in the TR-FRET instrument, Analyst HT (Molecular Probes, Sunnyvale, Calif.) and the condition for measurements are set up using CriterionHost Release 2.0 (Molecular Probes, Sunnyvale, Calif.). The settings used are a follows: excitation 360 nm, emission 665-7.5 nm, beam splitter 350 nm 50/50, flash 100 pulses, delay 60 us, integration 400 us, z-height 2 mm. Inhibition of SYK-tyrosine kinase activity is calculated as the maximum response observed in the presence of inhibitor, compared to that in the absence of inhibitor. IC50s were derived by non-linear regression analysis.

Q: `Cc1cccc(Nc2nc(Nc3ccc(S(N)(=O)=O)cc3)nc(O)c2C(N)=O)c1` [Example 63, 4-(4-(3-methylphenylamino)-5-carboxamide-6-oxo-1,6-dihydropyrimidin-2-ylamino)benzenesulfonamide] was tested. Which IC50 did it give?
A: Its IC50 is 100 to 1000 nM.

Q: Which IC50 does the source give for `CC(=O)N1CCN(c2ccc(Nc3nc(O)c(C(N)=O)c(Nc4cccc(C)c4)n3)cc2)CC1` [Example 64, 4-(m-toluidino)-2-(4-(4-acetylpiperazin-1-yl)phenylamino)-6-hydroxypyrimidine-5-carboxamide] here?
A: The IC50 was over 1000 nM.

Q: With `COc1nc(NC2CCCCC2N)nc(Nc2cc(C)cc(C)c2)c1C(N)=O` (stereo not drawn) [Example 65, 2-(2-aminocyclohexylamino)-4-(3,5-dimethylphenylamino)-6-methoxypyrimidine-5-carboxamide] as the molecule, how does the IC50 read?
A: Its IC50 is 10 to 100 nM.

Q: How did the IC50 turn out when `COc1nc(N[C@H](C)C(N)=O)nc(Nc2cc(C)cc(C)c2)c1C(N)=O` [Example 66, (R)-2-(1-amino-1-oxopropan-2-ylamino)-4-(3,5-dimethylphenylamino)-6-methoxypyrimidine-5-carboxamide] was run?
A: Its IC50 is 100 to 1000 nM.

Q: `COc1nc(N[C@H](CC(C)C)C(N)=O)nc(Nc2cc(C)cc(C)c2)c1C(N)=O` [Example 67, (R)-2-(1-amino-4-methyl-1-oxopentan-2-ylamino)-4-(3,5-dimethylphenylamino)-6-methoxypyrimidine-5-carboxamide] was tested. Which IC50 did it give?
A: Its IC50 is 100 to 1000 nM.

Q: How did the IC50 turn out when `COc1nc(NC[C@H](C)N)nc(Nc2cc(C)cc(C)c2)c1C(N)=O` [Example 68, (S)-2-(2-aminopropylamino)-4-(3,5-dimethylphenylamino)-6-methoxypyrimidine-5-carboxamide] was run?
A: The IC50 was 100 to 1000 nM.

Q: For `COc1nc(Nc2ccc(N3CCN(C(C)=O)CC3)cc2)nc(NC2CC2)c1C(N)=O` [Example 69, 2-(4-(4-acetylpiperazin-1-yl)phenylamino)-4-(cyclopropylamino)-6-methoxypyrimidine-5-carboxamide], which IC50 is on record?
A: Its IC50 is over 1000 nM.

Q: For `COc1nc(Nc2ccc(N3CCOCC3)cc2)nc(Nc2cccc(C)c2)c1C(N)=O` [Example 70, 4-(m-toluidino)-6-methoxy-2-(4-morpholinophenylamino)pyrimidine-5-carboxamide], which IC50 is on record?
A: Its IC50 is over 1000 nM.

Q: Which IC50 does the source give for `COc1nc(N[C@@H](C(N)=O)c2ccccc2)nc(Nc2cccc(C)c2)c1C(N)=O` [Example 71, (R)-4-(m-toluidino)-2-(2-amino-2-oxo-1-phenylethylamino)-6-methoxypyrimidine-5-carboxamide] here?
A: The IC50 was 100 to 1000 nM.

Q: How did the IC50 turn out when `COc1nc(N[C@@H](C(N)=O)c2ccccc2)nc(Nc2cc(C)cc(C)c2)c1C(N)=O` [Example 72, (R)-2-(2-amino-2-oxo-1-phenylethylamino)-4-(3,5-dimethylphenylamino)-6-methoxypyrimidine-5-carboxamide] was run?
A: The IC50 was 100 to 1000 nM.

Q: `COc1nc(Nc2ccc(N3CCOCC3)cc2)nc(NC2CC2)c1C(N)=O` [Example 73, 4-(cyclopropylamino)-6-methoxy-2-(4-morpholinophenylamino)pyrimidine-5-carboxamide] was tested. Which IC50 did it give?
A: The IC50 was over 1000 nM.

Q: With `COc1nc(Nc2ccc(N3CCN(C(C)=O)CC3)cc2)nc(Nc2cccc(C)c2)c1C(N)=O` [Example 74, 4-(m-toluidino)-2-(4-(4-acetylpiperazin-1-yl)phenylamino)-6-methoxypyrimidine-5-carboxamide] as the molecule, how does the IC50 read?
A: Its IC50 is over 1000 nM.

Q: With `CCNc1nc(Nc2cccc(C)c2)c(C(N)=O)c(OCCO)n1` [Example 75, 4-(m-toluidino)-2-(ethylamino)-6-(2-hydroxyethoxy)pyrimidine-5-carboxamide] as the molecule, how does the IC50 read?
A: Its IC50 is over 1000 nM.

Q: `CC[C@@H](Nc1nc(Nc2ccc3c(c2)OCO3)c(C(N)=O)c(=O)[nH]1)C(N)=O` [Example 76, (R)-2-(1-amino-1-oxobutan-2-ylamino)-4-(benzo[d][1,3]dioxol-5-ylamino)-6-oxo-1,6-dihydropyrimidine-5-carboxamide] was tested. Which IC50 did it give?
A: Its IC50 is 1 to 10 nM.

Q: `COc1cccc(Nc2nc(N[C@H](CC(C)C)C(N)=O)[nH]c(=O)c2C(N)=O)c1` [Example 77, (R)-2-(1-amino-4-methyl-1-oxopentan-2-ylamino)-4-(3-methoxyphenylamino)-6-oxo-1,6-dihydropyrimidine-5-carboxamide] was tested. Which IC50 did it give?
A: The IC50 was 1 to 10 nM.

Q: With `CC(C)C[C@@H](Nc1nc(Nc2ccc3c(c2)OCCO3)c(C(N)=O)c(=O)[nH]1)C(N)=O` [Example 78, (R)-2-(1-amino-4-methyl-1-oxopentan-2-ylamino)-4-(2,3-dihydrobenzo[b][1,4]dioxin-6-ylamino)-6-oxo-1,6-dihydropyrimidine-5-carboxamide] as the molecule, how does the IC50 read?
A: Its IC50 is 1 to 10 nM.

Q: Which IC50 does the source give for `CC(C)C[C@@H](Nc1nc(Nc2ccc3c(c2)OCO3)c(C(N)=O)c(=O)[nH]1)C(N)=O` [Example 79, (R)-2-(1-amino-4-methyl-1-oxopentan-2-ylamino)-4-(benzo[d][1,3]-dioxol-5-ylamino)-6-oxo-1,6-dihydropyrimidine-5-carboxamide] here?
A: The IC50 was under 1 nM.

Q: `CC(C)C[C@@H](Nc1nc(Nc2cccc(-c3ncccc3F)c2)c(C(N)=O)c(=O)[nH]1)C(N)=O` [Example 80, (R)-2-(1-amino-4-methyl-1-oxopentan-2-ylamino)-6-oxo-4-(3-(3-fluoropyridin-2-yl)phenylamino)-1,6-dihydropyrimidine-5-carboxamide] was tested. Which IC50 did it give?
A: Its IC50 is 1 to 10 nM.

Q: For `CC[C@@H](Nc1nc(Nc2cccc(-c3ncccc3F)c2)c(C(N)=O)c(=O)[nH]1)C(N)=O` [Example 81, (R)-2-(1-amino-1-oxobutan-2-ylamino)-6-oxo-4-(3-(3-fluoropyridin-2-yl)phenylamino)-1,6-dihydropyrimidine-5-carboxamide], which IC50 is on record?
A: The IC50 was 1 to 10 nM.

Q: How did the IC50 turn out when `COc1ccc(Nc2nc(N[C@H](CC(C)C)C(N)=O)[nH]c(=O)c2C(N)=O)cc1OC` [Example 83, (R)-2-(1-amino-4-methyl-1-oxopentan-2-ylamino)-4-(3,4-dimethoxyphenylamino)-6-oxo-1,6-dihydropyrimidine-5-carboxamide] was run?
A: Its IC50 is under 1 nM.

Q: For `CC[C@@H](Nc1nc(Nc2ccc3c(c2)OCCO3)c(C(N)=O)c(=O)[nH]1)C(N)=O` [Example 86, (R)-2-(1-amino-1-oxobutan-2-ylamino)-4-(2,3-dihydrobenzo[b][1,4]dioxin-6-ylamino)-6-oxo-1,6-dihydropyrimidine-5-carboxamide], which IC50 is on record?
A: Its IC50 is 1 to 10 nM.

Q: `CC(C)C[C@@H](Nc1nc(Nc2cccc(OC(F)F)c2)c(C(N)=O)c(=O)[nH]1)C(N)=O` [Example 87, (R)-2-(1-amino-4-methyl-1-oxopentan-2-ylamino)-4-(3-(difluoromethoxy)phenylamino)-6-oxo-1,6-dihydropyrimidine-5-carboxamide] was tested. Which IC50 did it give?
A: Its IC50 is 1 to 10 nM.

Q: Which IC50 does the source give for `CC[C@@H](Nc1nc(Nc2cccc(OC(F)F)c2)c(C(N)=O)c(=O)[nH]1)C(N)=O` [Example 88, (R)-2-(1-amino-1-oxobutan-2-ylamino)-4-(3-(difluoromethoxy)phenylamino)-6-oxo-1,6-dihydropyrimidine-5-carboxamide] here?
A: Its IC50 is 1 to 10 nM.

Q: Which IC50 does the source give for `COc1ccc(Nc2nc(N[C@H](CC(C)C)C(N)=O)[nH]c(=O)c2C(N)=O)cc1` [Example 89, (R)-2-(1-amino-4-methyl-1-oxopentan-2-ylamino)-4-(4-methoxyphenylamino)-6-oxo-1,6-dihydropyrimidine-5-carboxamide] here?
A: The IC50 was 1 to 10 nM.

Q: How did the IC50 turn out when `CC[C@@H](Nc1nc(Nc2ccc(OC)cc2)c(C(N)=O)c(=O)[nH]1)C(N)=O` [Example 90, (R)-2-(1-amino-1-oxobutan-2-ylamino)-4-(4-methoxyphenylamino)-6-oxo-1,6-dihydropyrimidine-5-carboxamide] was run?
A: The IC50 was 1 to 10 nM.

Q: With `CC(C)C[C@@H](Nc1nc(Nc2ccc(OC(F)(F)F)cc2)c(C(N)=O)c(=O)[nH]1)C(N)=O` [Example 91, (R)-2-(1-amino-4-methyl-1-oxopentan-2-ylamino)-4-(4-(trifluoromethoxy)phenylamino)-6-oxo-1,6-dihydropyrimidine-5-carboxamide] as the molecule, how does the IC50 read?
A: Its IC50 is 1 to 10 nM.

Q: How did the IC50 turn out when `CC[C@@H](Nc1nc(Nc2ccc(OC(F)(F)F)cc2)c(C(N)=O)c(=O)[nH]1)C(N)=O` [Example 92, (R)-2-(1-amino-1-oxobutan-2-ylamino)-4-(4-(trifluoromethoxy)phenylamino)-6-oxo-1,6-dihydropyrimidine-5-carboxamide] was run?
A: The IC50 was 1 to 10 nM.
